Patent publication US20240067693A1, “POLYPEPTIDES AND USES THEREOF” (MEDIMMUNE LIMITED, priority 2020, published 2024)
Numbered stars: 1 amine (or outer) side, 2 acyl side, 3 side chain; on linkers, the order of the positions; unused ones are H or OH. Bridge positions count the residues as written; N and C are the ends. Square brackets hold non-standard residues; d marks the D form. Side chains are listed from the residue outwards. Peptide text beside a SMILES is read from it. * marks the point of attachment. C18 diacid = O=C(O)CCCCCCCCCCCCCCCCC(=O)*; γGlu = O=C(O)[C@H](CCC(=O)[*:2])N[*:1]; αMeF = C[C@](N)(Cc1ccccc1)C(=O)O; Dab = NCC[C@H](N)C(=O)O; AEEA = NCCOCCOCC(=O)O; Aib = CC(C)(N)C(=O)O

Tests used:
[1] = molecular target: T1, human amylin receptor (calcitonin receptor co-expressed with receptor activity modifying protein, RAMP3) (hAMYR3) (Homo sapiens, UniProt O60896+P30988); assay: cAMP production in 1321N1 cells with stable recombinant expression of human amylin receptor (hAMYR3); type: cell-based; conditions: for Ratio (selectivity hAMYR vs hCTR, ratio of EC50 values at the two receptors): EC50 hCTR / EC50 hAMYR3; for EC50: cAMP, 1321N1 cells, assay buffer with 0.1% BSA, read-out: EC50 (pM) hAMYR3
T1 construct: expressed in transfected cells
T1 sequence (P30988 25-474): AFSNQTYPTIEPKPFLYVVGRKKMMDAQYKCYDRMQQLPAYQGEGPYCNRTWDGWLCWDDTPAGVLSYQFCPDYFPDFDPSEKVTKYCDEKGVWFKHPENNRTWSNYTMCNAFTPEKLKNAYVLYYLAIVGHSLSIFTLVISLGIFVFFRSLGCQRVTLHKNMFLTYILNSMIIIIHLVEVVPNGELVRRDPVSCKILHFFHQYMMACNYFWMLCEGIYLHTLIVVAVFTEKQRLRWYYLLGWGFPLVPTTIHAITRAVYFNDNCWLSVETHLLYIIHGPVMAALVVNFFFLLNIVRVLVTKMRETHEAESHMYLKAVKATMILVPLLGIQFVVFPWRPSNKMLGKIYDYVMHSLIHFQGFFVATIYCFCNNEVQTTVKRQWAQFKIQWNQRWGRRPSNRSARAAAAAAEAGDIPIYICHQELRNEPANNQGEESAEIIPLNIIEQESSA
T1 sequence (O60896 24-148 partner): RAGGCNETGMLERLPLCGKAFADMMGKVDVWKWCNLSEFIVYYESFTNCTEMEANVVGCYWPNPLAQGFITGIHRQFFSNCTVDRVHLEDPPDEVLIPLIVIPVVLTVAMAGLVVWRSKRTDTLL
Procedure, shortened: (§1)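 Receptor-expressing cells (human receptors in 1321N1, rat receptors in HEK) incubated 30 min at room temperature with peptide in HBSS/HEPES pH 7.4, 0.1% BSA, 0.5 mM IBMX. cAMP read by HTRF; EC50 from 4-parameter fit as % of maximal amylin or calcitonin response.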

[2] = Thioflavin T fibrillation assay; type: physicochemical; conditions: ThT fibrillation assay; peptide 1 mg/mL in 25 mM sodium acetate buffer pH 4.0; 6 days at 37 °C with shaking; >144 h = no increase
Source text: Peptide aggregation that form fibrils is an indication of physical instability. Fibril formation in solution poses a significant risk for the stability of injectable peptide drug products. Thioflavin T (ThT) fibrillation assay is a useful tool to assess the aggregation kinetics of a peptide or protein under accelerated and stressed conditions that can be used to forecast the long-term viability of a compound in solution. ThT can selectively bind amyloid fibrils and the resultant complex emits strong fluorescence signal at 482 nm when excited at 450 nm (Anal Biochem. 1989 Mar;177(2):244-9). Monitoring of the change in fluorescence signal is an established method to study the fibril forming potential of peptides and proteins. ThT (purchased from Sigma Aldrich) stock solution is prepared by dissolving the ThT powder in Milli-Q water and filtered to obtain a 0.25 mM solution. The concentration of the solution is measured at 412 nm using an extinction coefficient of 36 mM^−1cm^−1. Test peptides were dissolved at 1 mg/mL in 25 mM sodium acetate buffer pH 4.0. 100 μL aliquot of peptide solution and 5 μL aliquot of ThT solution were placed in a clear bottom black fluorescence 96-well plate. 5 replicates of each test samples were placed in zo the same row of the plate. Buffer was placed in control wells for baseline correction. All empty wells were filled with water to prevent evaporation. The plate was sealed with aluminium seal and placed in fluorescence plate reader and incubated for 6 days at 37 ° C. with intermittent orbital shaking at 500 to 750 rpm. The fluorescence intensity was measured every 30 min using excitation at 444 nm and emission at 480 nm. The fibril forming potential of the test peptides was determined by measuring the average time taken to detect an increase in baseline corrected fluorescence intensity.

[3] = molecular target: T2, human calcitonin receptor (hCTR) (Homo sapiens, UniProt P30988); assay: cAMP production in 1321N1 cells with stable recombinant expression of human calcitonin receptor (hCTR); type: cell-based; conditions: cAMP, 1321N1 cells, assay buffer with 0.1% BSA; read-out: EC50 (pM) hCTR
T2 construct: expressed in transfected cells
T2 sequence (P30988 25-474): T1 sequence (P30988 25-474)
Procedure, shortened: as §1

Row | Compound | Ratio (selectivity hAMYR vs hCTR, ratio of EC50 values at the two receptors) [1] | EC50 [1] [pM] | Time taken to detect increase in fluorescence intensity [2] [h] | EC50 [3] [pM]
1 | CC[C@H](C)[C@H](NC(=O)[C@@H]1CCCN1C(=O)CNC(=O)[C@](C)(Cc1ccccc1)NC(=O)[C@H](CC(N)=O)NC(=O)[C@H](CC(N)=O)NC(=O)[C@H](CO)NC(=O)[C@H](CO)NC(=O)[C@H](Cc1c[nH]cn1)NC(=O)[C@H](CCCNC(=N)N)NC(=O)[C@H](CC(C)C)NC(=O)[C@H](Cc1ccccc1)NC(=O)[C@H](CCC(=O)O)NC(=O)[C@H](C)NC(=O)[C@H](CC(C)C)NC(=O)[C@H](CCCNC(=N)N)NC(=O)[C@H](CCC(N)=O)NC(=O)[C@@H](NC(=O)[C@H](C)NC(=O)[C@@H]1CSSC[C@H](NC(=O)[C@@H](N)CCCCNC(=O)CC[C@H](NC(=O)CC[C@H](NC(=O)CCCCCCCCCCCCCCCCC(=O)O)C(=O)O)C(=O)O)C(=O)N[C@@H](CC(N)=O)C(=O)N[C@@H]([C@@H](C)O)C(=O)N[C@@H](C)C(=O)N[C@@H]([C@@H](C)O)C(=O)N1)[C@@H](C)O)C(=O)N[C@@H](CC(C)C)C(=O)N1CCC[C@H]1C(=O)N1CCC[C@H]1C(=O)N[C@H](C(=O)N[C@@H](CC(N)=O)C(=O)N[C@H](C(=O)NCC(=O)N[C@@H](CO)C(=O)N[C@@H](CC(N)=O)C(=O)N[C@H](C(=O)N[C@@H](Cc1ccc(O)cc1)C(N)=O)[C@@H](C)O)C(C)C)[C@@H](C)O [Peptide 11, K(γE-γE-C18diacid)[CNTATC]ATQRLAEFLRHSSNN(αMePhe)GPILPPTNVGSNTY-amide] (H-K([γGlu-γGlu-C18 diacid])CNTATCATQRLAEFLRHSSNN[αMeF]GPILPPTNVGSNTY-NH2; disulfide 2-7) | 21 | 177 | >144 | 3640
2 | CC[C@H](C)[C@H](NC(=O)[C@@H]1CCCN1C(=O)CNC(=O)[C@H](Cc1ccccc1)NC(=O)[C@H](CC(N)=O)NC(=O)[C@H](CCN)NC(=O)[C@H](CO)NC(=O)[C@H](CO)NC(=O)[C@H](Cc1c[nH]cn1)NC(=O)C(C)(C)NC(=O)[C@H](CC(C)C)NC(=O)[C@H](Cc1ccccc1)NC(=O)[C@H](CC(N)=O)NC(=O)[C@H](C)NC(=O)[C@H](CC(C)C)NC(=O)[C@H](CCCNC(=N)N)NC(=O)[C@H](CCC(N)=O)NC(=O)[C@@H](NC(=O)[C@H](C)NC(=O)[C@@H]1CSSC[C@H](NC(=O)[C@@H](N)CCCCNC(=O)CC[C@H](NC(=O)CCCCCCCCCCCCCCCCC(=O)O)C(=O)O)C(=O)N[C@@H](CC(N)=O)C(=O)N[C@@H]([C@@H](C)O)C(=O)N[C@@H](C)C(=O)N[C@@H]([C@@H](C)O)C(=O)N1)[C@@H](C)O)C(=O)N[C@@H](CC(C)C)C(=O)N1CCC[C@H]1C(=O)N1CCC[C@H]1C(=O)N[C@H](C(=O)N[C@@H](CC(N)=O)C(=O)N[C@H](C(=O)NCC(=O)N[C@@H](CO)C(=O)N[C@@H](CC(N)=O)C(=O)N[C@H](C(=O)N[C@@H](Cc1ccc(O)cc1)C(N)=O)[C@@H](C)O)C(C)C)[C@@H](C)O [Peptide 150, K(γE-C18diacid)[CNTATC]ATQRLANFL(Aib)HSS(Dab)NFGPILPPTNVGSNTY-amide] (H-K([γGlu-C18 diacid])CNTATCATQRLANFL[Aib]HSS[Dab]NFGPILPPTNVGSNTY-NH2; disulfide 2-7; N-terminus assumed) | 23.4 | 179 | – | 4180
3 | CC[C@H](C)[C@H](NC(=O)[C@@H]1CCCN1C(=O)CNC(=O)[C@H](Cc1ccccc1)NC(=O)[C@H](CC(N)=O)NC(=O)CNC(=O)[C@H](CO)NC(=O)[C@H](CO)NC(=O)[C@H](Cc1c[nH]cn1)NC(=O)C(C)(C)NC(=O)[C@H](CC(C)C)NC(=O)[C@H](Cc1ccccc1)NC(=O)[C@H](CC(N)=O)NC(=O)[C@H](C)NC(=O)[C@H](CC(C)C)NC(=O)[C@H](CCCNC(=N)N)NC(=O)[C@H](CCC(N)=O)NC(=O)[C@@H](NC(=O)[C@H](C)NC(=O)[C@@H]1CSSC[C@H](NC(=O)[C@H](CCCCN)NC(=O)[C@@H](N)CCCCNC(=O)CC[C@H](NC(=O)CCCCCCCCCCCCCCCCC(=O)O)C(=O)O)C(=O)N[C@@H](CC(N)=O)C(=O)N[C@@H]([C@@H](C)O)C(=O)N[C@@H](C)C(=O)N[C@@H]([C@@H](C)O)C(=O)N1)[C@@H](C)O)C(=O)N[C@@H](CC(C)C)C(=O)N1CCC[C@H]1C(=O)N1CCC[C@H]1C(=O)N[C@H](C(=O)N[C@@H](CC(N)=O)C(=O)N[C@H](C(=O)NCC(=O)N[C@@H](CO)C(=O)N[C@@H](CC(N)=O)C(=O)N[C@H](C(=O)N[C@@H](Cc1ccc(O)cc1)C(N)=O)[C@@H](C)O)C(C)C)[C@@H](C)O [Peptide 154] (H-K([γGlu-C18 diacid])KCNTATCATQRLANFL[Aib]HSSGNFGPILPPTNVGSNTY-NH2; disulfide 3-8; N-terminus assumed) | 2.7 | 574 | – | 1540

Continued, values first:

Row | Ratio (selectivity hAMYR vs hCTR, ratio of EC50 values at the two receptors) [1] | EC50 [1] [pM] | Time taken to detect increase in fluorescence intensity [2] [h] | EC50 [3] [pM] | Compound
4 | 14.7 | 61 | – | 898 | CC[C@H](C)[C@H](NC(=O)[C@@H]1CCCN1C(=O)CNC(=O)[C@H](Cc1ccccc1)NC(=O)[C@H](CC(N)=O)NC(=O)[C@H](CC(N)=O)NC(=O)[C@H](CO)NC(=O)[C@H](CO)NC(=O)[C@H](Cc1c[nH]cn1)NC(=O)C(C)(C)NC(=O)[C@H](CC(C)C)NC(=O)[C@H](Cc1ccccc1)NC(=O)[C@H](CC(N)=O)NC(=O)[C@H](C)NC(=O)[C@H](CC(C)C)NC(=O)[C@H](CCCNC(=N)N)NC(=O)[C@H](CCC(N)=O)NC(=O)[C@@H](NC(=O)[C@H](C)NC(=O)[C@@H]1CSSC[C@H](NC(=O)[C@@H](N)CCCCNC(=O)CC[C@H](NC(=O)CCCCCCCCCCCCCCCCC(=O)O)C(=O)O)C(=O)N[C@@H](CC(N)=O)C(=O)N[C@@H]([C@@H](C)O)C(=O)N[C@@H](C)C(=O)N[C@@H]([C@@H](C)O)C(=O)N1)[C@@H](C)O)C(=O)N[C@H](CC(C)C)C(=O)N1CCC[C@H]1C(=O)N1CCC[C@H]1C(=O)N[C@H](C(=O)N[C@@H](CC(N)=O)C(=O)N[C@H](C(=O)NCC(=O)N[C@@H](CO)C(=O)N[C@@H](CC(N)=O)C(=O)N[C@H](C(=O)N[C@@H](Cc1ccc(O)cc1)C(N)=O)[C@@H](C)O)C(C)C)[C@@H](C)O [Peptide 151, K(γE-C18diacid)[CNTATC]ATQRLANFL(Aib)HSSNNFGPI(dL)PPTNVGSNTY-amide] (H-K([γGlu-C18 diacid])CNTATCATQRLANFL[Aib]HSSNNFGPI[dL]PPTNVGSNTY-NH2; disulfide 2-7; N-terminus assumed)
5 | 12 | 173 | – | 2160 | H-K([AEEA-AEEA-γGlu-C18 diacid])GGGKCNTATCATQRLANFLVHSSNNFGPILPPTNVGSNTY-NH2 (disulfide 6-11) [Peptide 7]
